From ChEMBL document CHEMBL5579901, “Discovery of Novel [1,2,4]Triazolo[1,5-a]pyrimidine Derivatives as Novel Potent S-Phase Kinase-Associated Protein 2 (SKP2) Inhibitors for the Treatment of Cancer” (J Med Chem, 2024)
Calls of active or inactive are those of the source. No cut-off for these calls is given here.

Legend:
MGC-803 [1] = test: Upregulation of p21 protein expression in human MGC-803 cells at 5 to 15 uM incubated for 48 hrs by Western blotting analysis; type: functional, cell-based; conditions: dose 5-15 µM
MGC-803 [2] = test: Induction of cell cycle arrest in human MGC-803 cells assessed as cells at G0/G1 phase at 7.5 uM incubated for 36 hrs by PI staining based flow cytometry (reference value: 57.1%); type: functional
MGC-803 [3] = test: Antitumor activity against human MGC-803 cells xenografted in IG dosed NOD-SCID mouse assessed as inhibition of tumor proliferation administered for 21 days; type: functional, organism-based; conditions: dose 25-50 mg/kg, time 21.0 day
MGC-803 [4] = test: Induction of cell cycle arrest in human MGC-803 cells assessed as cells at G0/G1 phase at 5 uM incubated for 36 hrs by PI staining based flow cytometry (reference value: 57.1%); type: functional
MGC-803 [5] = test: Induction of cell cycle arrest in human MGC-803 cells assessed as cells at S phase at 15 uM incubated for 48 hrs by PI staining based flow cytometry (reference value: 19.6%); type: functional
PC-3 [6] = test: Induction of cell cycle arrest in human PC-3 cells assessed as cells at G2/M phase at 15 uM incubated for 36 hrs by PI staining based flow cytometry (reference value: 21.3%); type: functional
[7] = Volume of distribution at steady state in Sprague-Dawley rat at 1 mg/kg, iv measured upto 24 hrs by LC/MS-MS analysis; type: ADME, organism-based; conditions: in vivo
MGC-803 [8] = test: Induction of cell cycle arrest in human MGC-803 cells assessed as cells at G0/G1 phase at 15 uM incubated for 36 hrs by PI staining based flow cytometry (reference value: 57.1%); type: functional
PC-3 [9] = test: Induction of cell cycle arrest in human PC-3 cells assessed as cells at G2/M phase at 5 uM incubated for 36 hrs by PI staining based flow cytometry (reference value: 21.3%); type: functional
MGC-803 [10] = test: Induction of cell cycle arrest in human MGC-803 cells assessed as cells at S phase at 7.5 uM incubated for 36 hrs by PI staining based flow cytometry (reference value: 18.2%); type: functional
PC-3 [11] = test: Upregulation of p21 protein expression in human PC-3 cells at 15 uM by Western blotting analysis; type: functional, cell-based; conditions: time 6-48 hrs, TDE = time-dependent effect
MGC-803 [12] = test: Antitumor activity against human MGC-803 cells xenografted in NOD-SCID mouse assessed as tumor growth inhibition at 50 mg/kg, IG administered for 21 days; type: functional; conditions: MGC-803, po, 504 h, time 21 day, read-out: TGI
[13] = biological target: Cyclin-dependent kinases regulatory subunit 1/S-phase kinase-associated protein 2 (Homo sapiens) (UniProt P61024+Q13309); test: Inhibition of GST-tagged SKP2 (unknown origin) binding to His6-tagged CKS1 (unknown origin) incubated for 1 hr by pull down method; type: protein assay
[14] = Toxicity against NOD-SCID mouse assessed as change in lung morphology at 25 to 50 mg/kg, IG administered for 21 days by H and E staining based assay; type: organism-based; conditions: in vivo, po, 504 h, dose 25-50 mg/kg, time 21 day
PC-3 [15] = test: Inhibition of DNA synthesis in human PC-3 cells incubated for 24 hrs by EdU staining based fluorescence microscopic analysis; type: functional, cell-based
MGC-803 [16] = test: Induction of cell cycle arrest in human MGC-803 cells assessed as cells at S phase at 5 uM incubated for 36 hrs by PI staining based flow cytometry (reference value: 18.2%); type: functional
PC-3 [17] = test: Induction of cell cycle arrest in human PC-3 cells assessed as cells at G0/G1 phase at 7.5 uM incubated for 36 hrs by PI staining based flow cytometry (reference value: 54.5%); type: functional
PC-3 [18] = test: Upregulation of p27 protein expression in human PC-3 cells at 15 uM by Western blotting analysis; type: functional, cell-based; conditions: time 6-48 hrs, TDE = time-dependent effect
[19] = Half-life in Sprague-Dawley rat at 1 mg/kg, iv measured upto 24 hrs by LC/MS-MS analysis; type: ADME, organism-based; conditions: in vivo
MGC-803 [20] = test: Induction of cell cycle arrest in human MGC-803 cells assessed as cells at G2/M phase at 15 uM incubated for 36 hrs by PI staining based flow cytometry (reference value: 20.6%); type: functional
MGC-803 [21] = test: Inhibition of colony formation in human MGC-803 cells incubated for 10 days by crystal violet staining based inverted microscopic analysis; type: functional, cell-based; conditions: dose 1-3 µM, time 10.0 day
[22] = AUClast in Sprague-Dawley rat at 1 mg/kg, iv measured upto 24 hrs by LC/MS-MS analysis; type: ADME, organism-based; conditions: in vivo
MGC-803 [23] = test: Inhibition of cell proliferation in human MGC-803 cells incubated for 24 to 72 hrs by MTT assay; type: functional, cell-based; conditions: dose 2-50 µM, time 24-72 hrs
MGC-803 [24] = test: Induction of cell cycle arrest in human MGC-803 cells assessed as cells at G2/M phase at 5 uM incubated for 36 hrs by PI staining based flow cytometry (reference value: 20.6%); type: functional
PC-3 [25] = test: Downregulation of SKP2 protein level in human PC-3 cells incubated for 48 hrs by Western blotting analysis; type: functional, cell-based; conditions: dose 5-15 µM
PC-3 [26] = test: Induction of cell cycle arrest in human PC-3 cells assessed as cells at G0/G1 phase at 15 uM incubated for 6 hrs by PI staining based flow cytometry (reference value: 55.1%); type: functional
[27] = Toxicity against NOD-SCID mouse assessed as change in kidney morphology at 25 to 50 mg/kg, IG administered for 21 days by H and E staining based assay; type: organism-based; conditions: in vivo, po, 504 h, dose 25-50 mg/kg, time 21 day
[28] = AUCinfinity in Sprague-Dawley rat at 50 mg/kg, po measured upto 24 hrs by LC/MS-MS analysis; type: ADME, organism-based; conditions: in vivo
MGC-803 [29] = test: Inhibition of cell proliferation in human MGC-803 cells at 2 to 50 uM by MTT assay; type: functional, cell-based; conditions: dose 2-50 µM, time 24-72 hrs, TDE = time-dependent effect
PC-3 [30] = test: Inhibition of colony formation in human PC-3 cells at 3 uM incubated for 10 days by crystal violet staining based inverted microscopic analysis; type: functional, cell-based; conditions: time 10.0 day
PC-3 [31] = test: Induction of cell cycle arrest in human PC-3 cells assessed as cells at S phase at 7.5 uM incubated for 36 hrs by PI staining based flow cytometry (reference value: 22.8%); type: functional
MGC-803 [32] = test: Upregulation of p27 protein expression in human MGC-803 cells at 5 to 15 uM incubated for 48 hrs by Western blotting analysis; type: functional, cell-based; conditions: dose 5-15 µM
[33] = Half-life in Sprague-Dawley rat at 50 mg/kg, po measured upto 24 hrs by LC/MS-MS analysis; type: ADME, organism-based; conditions: in vivo
MGC-803 [34] = test: Induction of cell cycle arrest in human MGC-803 cells assessed as cells at S phase at 15 uM incubated for 12 hrs by PI staining based flow cytometry (reference value: 19.6%); type: functional
PC-3 [35] = test: Induction of cell cycle arrest in human PC-3 cells assessed as cells at S phase at 15 uM incubated for 48 hrs by PI staining based flow cytometry (reference value: 22.9%); type: functional
MGC-803 [36] = test: Induction of cell cycle arrest in human MGC-803 cells assessed as cells at S phase at 15 uM incubated for 24 hrs by PI staining based flow cytometry (reference value: 19.6%); type: functional
MGC-803 [37] = test: Induction of cell cycle arrest in human MGC-803 cells assessed as cells at S phase at 15 uM incubated for 6 hrs by PI staining based flow cytometry (reference value: 19.6%); type: functional

Cyclin-dependent kinases regulatory subunit 1/S-phase kinase-associated protein 2 (Homo sapiens), sequence (P61024 2-79 limits assumed): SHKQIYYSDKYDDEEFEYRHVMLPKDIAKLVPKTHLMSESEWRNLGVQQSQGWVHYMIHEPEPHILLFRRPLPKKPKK
Cyclin-dependent kinases regulatory subunit 1/S-phase kinase-associated protein 2 (Homo sapiens), sequence (Q13309 whole entry partner): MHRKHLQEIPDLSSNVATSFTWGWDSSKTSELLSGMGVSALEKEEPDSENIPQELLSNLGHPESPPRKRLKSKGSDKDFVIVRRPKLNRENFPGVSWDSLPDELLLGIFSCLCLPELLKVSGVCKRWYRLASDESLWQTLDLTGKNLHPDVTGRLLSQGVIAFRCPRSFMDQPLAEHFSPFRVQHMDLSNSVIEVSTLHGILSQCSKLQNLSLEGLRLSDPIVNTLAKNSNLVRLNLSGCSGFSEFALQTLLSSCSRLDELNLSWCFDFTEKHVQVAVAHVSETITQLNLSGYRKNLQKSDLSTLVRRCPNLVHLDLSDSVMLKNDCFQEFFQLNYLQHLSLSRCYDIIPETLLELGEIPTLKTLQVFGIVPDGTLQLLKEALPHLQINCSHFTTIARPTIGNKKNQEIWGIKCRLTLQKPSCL

COc1ccc(-c2cc(C)nc3nc(SCc4ccc(Br)cc4)nn23)c(OC)c1
Activity (MGC-803 [1]): Active
Activity (MGC-803 [2]): 45.1%
Activity (MGC-803 [3]): Dose-Dependent Effect
Activity (MGC-803 [4]): 49.8%
Activity (MGC-803 [5]): 37.3%
Activity (PC-3 [6]): 16.3%
Vdss [7]: 8.87 L/kg
Activity (MGC-803 [8]): 39.3%
Activity (PC-3 [9]): 19.9%
Activity (MGC-803 [10]): 35.8%
Activity (PC-3 [11]): Tde
inhibition in vivo at 50 mg/kg (MGC-803 [12]): 76.9%
inhibition [13]: Active
Activity [14]: Non-Toxic
inhibition (PC-3 [15]): Dose-Dependent Effect
Activity (MGC-803 [16]): 26.9%
Activity (PC-3 [17]): 39%
Activity (PC-3 [18]): Tde
t1/2 [19]: 1.49 h
Activity (MGC-803 [20]): 14.4%
inhibition (MGC-803 [21]): Dose-Dependent Effect
AUC(0-t) at 24 h [22]: 699 ng·h/mL
inhibition (MGC-803 [23]): Dose-Dependent Effect
Activity (MGC-803 [24]): 23.2%
Activity (PC-3 [25]): Dose-Dependent Effect
Activity (PC-3 [26]): 52.8%
Activity [27]: Non-Toxic
AUC(0-inf) [28]: 1070 ng·h/mL
inhibition (MGC-803 [29]): Tde
inhibition (PC-3 [30]): Active
Activity (PC-3 [31]): 37.2%
Activity (MGC-803 [32]): Active
half-life [33]: 546 min
Activity (MGC-803 [34]): 31.2%
Activity (PC-3 [35]): 39.8%
Activity (MGC-803 [36]): 38.9%
Activity (MGC-803 [37]): 26.8%
